Experimental data taken from ChEMBL document CHEMBL5042474, “Structure-Guided Discovery of Potent and Selective DYRK1A Inhibitors” (J Med Chem, 2021).

What was measured:
[1] = biological target: Cyclin-dependent kinase 9 (Homo sapiens, UniProt P50750); assay: Inhibition of CDK9 (unknown origin) using Ulight-MBP as substrate and ATP as co-substrate incubated for 40 mins and measured after 1 hr by TR-FRET assay
[2] = biological target: T1, Dual specificity tyrosine-phosphorylation-regulated kinase 1A (Homo sapiens, UniProt Q13627); assay: Inhibition of wild type full length DYRK1A (unknown origin) in human U2OS cells assessed as reduction in pSER520 autophosphorylation incubated for 5 hrs by western blot analysis; assay type: cell-based
[3] = biological target: T1, Dual specificity tyrosine-phosphorylation-regulated kinase 1A; assay: Inhibition of DYRK1A (unknown origin) using Ulight-MBP as substrate and ATP as co-substrate incubated for 40 mins and measured after 1 hr by TR-FRET assay
[4] = biological target: T2, Dual specificity tyrosine-phosphorylation-regulated kinase 2 (Homo sapiens, UniProt Q92630); assay: Inhibition of DYRK2 (unknown origin) using Ulight-MBP as substrate and ATP as co-substrate incubated for 40 mins and measured after 1 hr by TR-FRET assay
T2 sequence (Q92630 whole entry): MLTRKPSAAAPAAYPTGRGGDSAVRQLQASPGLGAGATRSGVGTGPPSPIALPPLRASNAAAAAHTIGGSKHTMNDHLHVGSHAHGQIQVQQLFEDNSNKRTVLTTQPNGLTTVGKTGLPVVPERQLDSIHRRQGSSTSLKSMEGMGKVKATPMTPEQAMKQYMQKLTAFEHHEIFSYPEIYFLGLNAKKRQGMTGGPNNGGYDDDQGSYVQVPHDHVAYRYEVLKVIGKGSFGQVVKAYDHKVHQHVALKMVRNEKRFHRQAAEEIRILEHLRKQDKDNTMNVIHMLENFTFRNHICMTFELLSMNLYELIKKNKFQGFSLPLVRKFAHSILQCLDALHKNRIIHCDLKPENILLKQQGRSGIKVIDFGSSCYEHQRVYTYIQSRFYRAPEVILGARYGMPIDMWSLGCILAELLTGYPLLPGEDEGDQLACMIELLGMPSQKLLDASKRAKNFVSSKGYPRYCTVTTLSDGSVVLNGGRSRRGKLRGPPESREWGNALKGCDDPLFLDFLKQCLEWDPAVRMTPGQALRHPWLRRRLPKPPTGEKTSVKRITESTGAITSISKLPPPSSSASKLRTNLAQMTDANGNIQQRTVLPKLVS

RS4-11 [5] = assay: Antitumor activity against human RS4-11 cells xenografted in BALB/c nu/nu mouse reduction in DYRK1A autophosphorylation of S520 residue at 6.25 mg/kg, po measured after 6 hrs by western blotting analysis relative to control; assay type: functional; parameters: scale not given: the % may be the effect or the level left
RS4-11 [6] = assay: Antitumor activity against human RS4-11 cells xenografted in BALB/c nu/nu mouse assessed as reduction in DYRK1A autophosphorylation of S520 residue at 6.25 mg/kg, po measured after 2 hrs by western blotting analysis relative to control; assay type: functional; parameters: scale not given: the % may be the effect or the level left

Chain of Cyclin-dependent kinase 9 (P50750 whole entry): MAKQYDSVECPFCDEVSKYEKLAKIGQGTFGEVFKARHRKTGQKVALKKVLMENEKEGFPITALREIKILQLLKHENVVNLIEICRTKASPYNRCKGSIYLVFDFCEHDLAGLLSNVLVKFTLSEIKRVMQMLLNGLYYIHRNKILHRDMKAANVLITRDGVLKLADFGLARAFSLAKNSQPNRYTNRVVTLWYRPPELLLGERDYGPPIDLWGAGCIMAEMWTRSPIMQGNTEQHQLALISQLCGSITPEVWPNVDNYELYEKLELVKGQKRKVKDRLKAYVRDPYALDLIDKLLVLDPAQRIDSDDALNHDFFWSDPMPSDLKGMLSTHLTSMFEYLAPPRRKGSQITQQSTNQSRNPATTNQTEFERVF

Row | Structure (SMILES) | IC50 [3] | IC50 [4] | also measured
1 | Cc1cc2cc(-c3cc(N)nc(N)c3)ccc2o1 | 34 nM |  | IC50 [1]: > 10000 nM; IC50 ([2]; read-out: IC50): 1800 nM
2 | Nc1cc(-c2ccc3c(c2)CCO3)nc(N)n1 | 22 nM |  | 
3 | Cc1nc2ccc(-c3cc(N)nc(N)c3)nc2n1C[C@@H](C)Oc1ccccc1 |  | 46 nM | IC50 [1]: > 3000 nM; IC50 ([2]; read-out: IC50): 111 nM
4 | c1cc(-c2ccc3occc3c2)ccn1 | 320 nM |  | 
5 | Nc1cc(-c2ccn3nccc3n2)cc(N)n1 | 2 nM |  | 
6 | Cc1nc2ccc(-c3cc(N)nc(N)c3)nc2n1C[C@H](C)Oc1ccccc1 | 8 nM | 22 nM | IC50 [1]: > 3000 nM; IC50 ([2]; read-out: IC50): 73 nM
7 | Nc1cc(-c2ccc3occc(=O)c3c2)cc(N)n1 | 42 nM |  | 
8 | Nc1cc(-c2ccc3nccn3c2)cc(N)n1 | 17 nM |  | 
9 | Cc1nc2ccc(-c3cc(N)nc(N)c3)nc2n1C(C)(C)C |  | 6 nM | 
10 | Cn1cnc2ccc(-c3cc(N)nc(N)c3)nc21 | 13 nM |  | 
11 | Cn1cnc2cc(-c3cc(N)nc(N)c3)ccc21 | 14 nM |  | 
12 | Cc1nc2ccc(-c3cc(N)nc(N)c3)nc2n1C1CCCC1 |  | 1 nM | 
13 | Nc1cc(-c2ccc3occc3c2)cc(NCCc2ccsc2)n1 | 189 nM |  | 
14 | Nc1cc(-c2ccc3sccc3c2)cc(N)n1 | 137 nM |  | 
15 | Cc1cc(-c2ccc(Cl)cc2)ccn1 | > 10000 nM |  | 
16 | Cc1nc2ccc(-c3cc(N)nc(N)c3)nc2n1CCc1ccco1 |  | 6 nM | 
17 | Nc1cc(-c2ccc3oc(Cl)cc3c2)cc(N)n1 | 76 nM |  | IC50 [1]: 5430 nM; IC50 ([2]; u2os): Not Active
18 | Cc1nc2ccc(-c3cc(N)nc(N)c3)nc2n1CCOc1cccc(Cl)n1 |  | 33 nM | IC50 [1]: 222 nM
19 | Cc1nc2ccc(-c3cc(N)nc(N)c3)nc2n1CCCC(F)(F)F |  | 10 nM | 
20 | Nc1cc(-c2ccc3ncoc3c2)cc(N)n1 | 10 nM |  | 
21 | Cc1nc2ccc(-c3cc(N)nc(N)c3)nc2n1Cc1ccc(F)cc1 |  | 134 nM | IC50 ([2]; read-out: IC50): 3000 nM
22 | Cc1oc2ccc(-c3cc(N)nc(N)c3)cc2c1C | 1 nM | 21 nM | IC50 [1]: 8840 nM; IC50 ([2]; read-out: IC50): 1650 nM
23 | Cc1nc2ccc(-c3cc(N)nc(N)c3)nc2n1CC(F)F |  | 4 nM | 
24 | Cc1nc2ccc(-c3cc(N)nc(N)c3)nc2n1C[C@@H](C)Oc1ccccn1 | 7 nM | 116 nM | IC50 [1]: > 3000 nM
25 | Nc1cc(-c2ccc3ncnn3c2)cc(N)n1 | 15 nM |  | 
26 | Cc1nc2ccc(-c3cc(N)nc(N)c3)nc2n1CC(F)(F)F |  | 6 nM | Activity (RS4-11 [5]): 95%; Activity (RS4-11 [6]): 93%

Row | Structure (SMILES) | IC50 [3] | IC50 [4] | also measured
27 | Cc1nc2ccc(-c3cc(N)nc(N)c3)nc2n1CCOc1cccc(Br)n1 |  | 52 nM | IC50 [1]: 289 nM
28 | CNc1cc(-c2ccc3occc3c2)cc(N)n1 | 17 nM |  | 
29 | Cc1nc2ccc(-c3cc(N)nc(N)c3)nc2n1CCC1CCCCC1 |  | 9 nM | 
30 | Cc1nc2ccc(-c3cc(N)nc(N)c3)nc2n1CCOc1ccccn1 |  | 34 nM | 
31 | Nc1cc(-c2ccc3occc3c2)ccn1 | 19 nM |  | 
32 | Cc1cc(-c2ccc3occc3c2)cc(N)n1 | 77 nM |  | 
33 | COc1ccc(-c2cc(N)nc(N)n2)cc1 | 158 nM |  | 
34 | Cc1onc2ccc(-c3cc(N)nc(N)c3)cc12 | 19 nM |  | 
35 | Cc1nc2ccc(-c3cc(N)nc(N)c3)nc2n1C[C@H](C)Oc1ccccn1 |  | 117 nM | IC50 [1]: > 3000 nM; IC50 ([2]; read-out: IC50): > 300 nM
36 | Nc1cc(-c2ccc3occc3c2)nc(N)n1 | 36 nM |  | 
37 | c1cc(-c2ccc3occc3c2)cc(N2CCNCC2)n1 | 3560 nM |  | 
38 | COc1ccc(-c2ccnc(C)c2)cc1 | 670 nM |  | 
39 | Nc1cc(-c2ccc3ncccc3c2)cc(N)n1 | 10 nM |  | 
40 | Nc1cc(-c2ccc3ncsc3c2)cc(N)n1 | 1 nM |  | 
41 | Nc1cc(-c2ccc3occc3n2)cc(N)n1 | 10 nM |  | 
42 | COCCCn1c(C)nc2ccc(-c3cc(N)nc(N)c3)nc21 |  | 5 nM | 
43 | Nc1cc(-c2ccc3c(c2)OCCO3)cc(N)n1 | 11 nM |  | 
44 | Cc1nc2ccc(-c3cc(N)nc(N)c3)nc2n1C[C@@H](C)Oc1cccc(Br)n1 | 5 nM | 195 nM | IC50 [1]: 467 nM; IC50 ([2]; read-out: IC50): 44 nM
45 | Nc1cc(-c2ccc3ocnc3c2)cc(N)n1 | 22 nM |  | 
46 | COc1ccc(-c2ccnc(N)c2)cc1 | 126 nM |  | 
47 | COc1cc(-c2ccnc(N)c2)ccc1Cl | 218 nM |  | 
48 | CNCC(=O)Nc1cc(-c2ccc3occc3c2)cc(N)n1 | 168 nM |  | 
49 | Cc1nc2ccc(-c3cc(N)nc(N)c3)nc2n1CCOc1ccccc1 |  | 9 nM | Activity (RS4-11 [5]): 25%; Activity (RS4-11 [6]): 59%
50 | COCCCNc1cc(-c2ccc3occc3c2)cc(N)n1 | 96 nM |  | 
51 | Nc1cc(-c2ccc3c(c2)CCO3)cc(N)n1 | 16 nM |  | 
52 | Nc1cc(-c2ccc3occc3c2)cc(N)n1 | 14 nM |  | IC50 [1]: 41 nM; IC50 ([2]; read-out: IC50): 500 nM
